Inconclusive results are not listed. Calls of active or inactive are those of the source.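 The calls were made as follows: active = fitted curve reaches 10% of positive control caspase signal at or below top valid tested dose; inconclusive = flat fit at 30 to 70% activity, or unreliable fit; inactive = the rest.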
Tested on: not listed separately
Test: apoptosis induction in HMC1-8 cells – cell-based, caspase luminescence, dry powder, set 2, selectivity assay for Bcl2-A1 inhibitor project, dose response (AID 504343)
Settings: HMC1-8 Mcl1-dependent cells, caspase-Glo luminescence, 4 h; at 35 µM (top of the series)

SMILES | caspase activation
Cn1c(=O)c([N+](=O)[O-])c(Cl)c2ccccc21 | -12.8% (inactive)
Cc1ccc(Nc2c([N+](=O)[O-])c(=O)oc3ccccc23)cc1 | 12.1% (inactive)
Cn1c(=O)c([N+](=O)[O-])c(Nc2ccc(Cl)cc2)c2ccccc21 | 1.67% (inactive)
Cc1ccc(Nc2c([N+](=O)[O-])c(=O)n(C)c3ccccc23)cc1 | 10.1% (inactive)
Cc1ccc(Sc2c([N+](=O)[O-])c(=O)n(C)c3ccccc23)cc1 | 0.553% (inactive)
CN1C(=O)C(C)(C)N(Cc2ccccc2)c2ccccc21 | 9.6% (inactive)
Cn1c(=O)c([N+](=O)[O-])c(Oc2ccccc2)c2ccccc21 | 2.58% (inactive)
CCOCCCNc1c([N+](=O)[O-])c(=O)n(C)c2ccccc12 | -2.94% (inactive)

Tested on: HMC1-8 Mcl1-dependent cells, caspase-Glo luminescence, 4 h
Test: as above
Settings: not given

SMILES | AC10
O=[N+]([O-])c1cnc2ccccc2c1Sc1ccccc1 | 25 µM
Cn1c(=O)c([N+](=O)[O-])c(-n2cnc3ccccc32)c2ccccc21 | 20 µM
C/C1=C/C(=O)O[C@@H]2C[C@@H](CC[C@H](C)/C=C\CC1)O[C@@](O)(C1CSC(=O)N1)C2 (some centres not stated) | > 35 µM (inactive)
Cc1ccc(Sc2c([N+](=O)[O-])cnc3ccccc23)cc1 | 25 µM

Source: PubChem BioAssay AID504343 (Broad Institute, 2011)
